Test: Human HepG2 cell viability assay in 384 well format
Format: toxicity, cell-based
Set-up: dose 125 nL, time 70.5 hour; concentration not given beside the values
Conditions: HepG2 cells, read-out: Inhibition

Row | Compound | cytotoxicity at 70.5 h [%]
1 | CCCc1cc(C(=O)N[C@@H]2CC[C@@H](N3CCOCC3)[C@@H]2O)no1 | -5.49
2 | CCc1cc(C(=O)N[C@@H]2CC[C@@H](N3CCOCC3)[C@@H]2O)no1 | -4.39
3 | Cc1n[nH]c(C)c1CCC(=O)NCC1(O)CCN(c2ccccn2)C1 (configuration not stated) | -1.98
4 | Cn1nc(C2CNCCO2)cc1CCOc1ccc(C(F)(F)F)cc1 (configuration not stated) | -1.52
5 | Cc1cnc(CC2COCCN(C(=O)CN3CCCCC3)C2)cn1 (configuration not stated) | -2.32
6 | Cn1ccnc1CN1CCOC(Cc2ccccc2)C1 (configuration not stated) | -3.39
7 | CC(=O)N1CCC(c2cncc(N3CCOCC3)n2)CC1 | -8.68
8 | c1cncc(CN2CC(Cc3nccc4cc[nH]c34)C2)c1 | -3.48
9 | CC(=O)N1CCC(c2cncc(Cl)n2)CC1 | 2.82
10 | Cc1ncncc1C(=O)N1CCOC(C(=O)NC2CCCC2)C1 (configuration not stated) | -1.76
11 | Oc1cc(-c2ccsc2)nc(C2CCN(Cc3cccnc3)CC2)n1 | -5.93
12 | Cc1cc(C2CCN(S(=O)(=O)N(C)C)CC2)ccn1 | 12.7
13 | COc1ccc(C2CNCCN2C(=O)c2cccc3cccnc23)cc1 (configuration not stated) | 12.4
14 | COc1ccc(C2CNCCN2C(=O)c2nccc3ccccc23)cc1 (configuration not stated) | 5.97
15 | COc1ccc(C2CNCCN2C(=O)c2cccc3ncccc23)cc1 (configuration not stated) | -3.21
16 | CNc1ncc(C(=O)N2CCOC(C(=O)N3CCCCCC3)C2)cn1 (configuration not stated) | -2.75
17 | COCCC(=O)N1C[C@@H](c2ccc(F)c(F)c2)[C@@]2(CCCC(=O)N2)C1 | -1.65
18 | CNc1nc(C2CCCN(C(=O)C3CCCCC3)C2)nc2c1CNCC2 (configuration not stated) | -3.63
19 | CNc1nccnc1C1CN(C(=O)c2c[nH]cn2)CCO1 (configuration not stated) | 3.73
20 | c1ccc2ncc(CC3CNCCOC3)cc2c1 (configuration not stated) | -0.7
21 | CN1CCCC(c2cccc(-c3cccc(C(F)(F)F)c3)n2)C1 (configuration not stated) | -2.8
22 | CC(=O)N1CCCC1c1nc(C)c2c(n1)N(Cc1ccccn1)CCC2 (configuration not stated) | -8.03
23 | CNC(=O)C1CN(Cc2cc(C)on2)CCN(C(C)=O)C1 (configuration not stated) | -9.11
24 | CN1CCCC1c1cncc(C(=O)NCCN2CCCCC2)n1 (configuration not stated) | -8.33
25 | CC(C)c1nnc(CCC(=O)N2CCCC(c3cnccn3)C2)o1 (configuration not stated) | -9.44
26 | CNC(=O)c1cnc(C)nc1CCNC(=O)CCc1ccccc1 | 7.59

Row | Compound | cytotoxicity at 70.5 h [%]
27 | NC(=O)c1cnc(NC2CC2)nc1CCNC(=O)Cc1ccccc1 | -5.85
28 | COc1ccc(F)cc1C(=O)N(C)[C@@H]1CC[C@@H](O)[C@@H]1O | -9.84
29 | COCc1ccc(OC)c(CNC2CCCNC2=O)c1 (configuration not stated) | -8.49
30 | CC(=O)N1CCC(Cc2cnc(Nc3cc(C)on3)cn2)CC1 | -4.74
31 | Cc1ncsc1C(=O)N1CCC(c2ncncc2-c2ccnc(N)c2)C1 (configuration not stated) | -7
32 | COc1ccccc1NC(=O)C1(c2ccccc2)CCOCC1 | -6.73
33 | CCNC(=O)c1cccc(CNC(=O)c2cnc(C(C)(C)C)s2)c1 | 2.86
34 | Cc1ccc(O)c(CNc2cccc(OCCF)c2)n1 | -5.5
35 | NC(=O)N1CCC(NCc2cc(Br)ccc2Cl)CC1 | -1.95
36 | Cc1ccc(OCC(=O)Nc2cc(C(=O)O)cc(S(C)(=O)=O)c2)cc1C | 0.676
37 | NC(=O)CN1CCC(NCc2cc(C(F)(F)F)ccc2Cl)CC1 | -4.69
38 | Cc1cc(N2CCCC(c3nncn3C3CC3)C2)ncn1 (configuration not stated) | -2.44
39 | Cc1ccc(CN(CCN(C)C)C(=O)Cc2cn3ccccc3n2)o1 | -3.69
40 | CN(Cc1cnn(C)c1)CC(O)c1ccc2c(c1)OCO2 (configuration not stated) | -2.83
41 | CCC(=O)N1CCC(NCc2cc(C(F)(F)F)ccc2Cl)C1 (configuration not stated) | -4.4
42 | COc1cccc(C(C)N2CCN(S(=O)(=O)CCCF)CC2)c1 (configuration not stated) | 34.9
43 | O=C(Nc1nncs1)c1ccc(O)nc1 | 0.228
44 | O=C(CN(Cc1cccs1)C1CCS(=O)(=O)C1)NCC1CCCCC1 (configuration not stated) | -1.81
45 | COc1c(F)cc(NCC(=O)NC(C)(C#N)C2CC2)cc1F (configuration not stated) | -0.61
46 | CC(c1cccc(Cl)c1)N1CCN(S(C)(=O)=O)CC1 (configuration not stated) | -1.61
47 | Cn1cc(CNC(=O)Nc2ccc(S(=O)(=O)C(F)F)cc2)cn1 | 0.531
48 | O=C1NCCCCC1SCc1coc(-c2ccccc2)n1 (configuration not stated) | -2.46
49 | CC(C#N)CNC(=O)Nc1ccc(Br)cc1 (configuration not stated) | 2.54
50 | CC(=O)NC(Cc1c[nH]c2cc(F)ccc12)C(=O)Nc1nncs1 (configuration not stated) | -2.58
51 | CC(=O)NC(Cc1c[nH]c2cc(F)ccc12)C(=O)Nc1cnn(C)c1 (configuration not stated) | 1.79
52 | CCS(=O)(=O)CC(=O)Nc1ccc2oc(C3CC3)nc2c1 | -0.903

Row | Compound | cytotoxicity at 70.5 h [%]
53 | Cc1nc(C2CCN(S(=O)(=O)c3ccc(Cl)cc3)CC2)n[nH]1 | 1.07
54 | Cc1nc(C2CCN(S(=O)(=O)c3ccc4c(c3)CCO4)CC2)n[nH]1 | 0.662
55 | CN(C)Cc1ccnc(NS(=O)(=O)CCc2ccccc2)c1 | 3.89
56 | O=C(Cc1cccc(F)c1F)N1CCOC(c2cccc(O)c2)C1 (configuration not stated) | -2.65
57 | O=C(c1ccco1)N(c1ccc(F)cn1)C1CCOCC1 | 26.4
58 | CC(NS(C)(=O)=O)C(=O)Nc1ccc2oc(C3CC3)nc2c1 (configuration not stated) | -3.24
59 | CS(=O)(=O)c1ccc(NCc2ccc(F)cc2)cn1 | -6.37
60 | O=C1NCCCCC1SCc1coc(-c2ccc(F)cc2)n1 (configuration not stated) | 20.1
61 | O=C(c1ccncc1)N1CCCN(Cc2nnc(C3CC3)o2)CC1 | -2.96
62 | CCOC(C)c1nc(COc2nc(C)no2)cs1 (configuration not stated) | -3.02
63 | COc1cccc(C(C)N2CCN(S(=O)(=O)c3ccccc3)CC2)c1 (configuration not stated) | -2.4
64 | O=C(C1CCCS1)N1CCOc2cccc(F)c21 (configuration not stated) | -3.7
65 | O=C(C1CCC1)N1CCOc2cccc(F)c21 | -9.1
66 | CCC1CCCN(S(=O)(=O)c2cnn(C)c2)C1 (configuration not stated) | -0.41
67 | COc1cccc(C(=O)Nc2ccc(OCCC(N)=O)cc2)c1OC | -5.04
68 | CCOC(=O)NCC(=O)Nc1nc2ccccc2n1C(C)(C)C | 5.06
69 | Cc1ccc(C(=O)NCCS(=O)(=O)Cc2ccccc2)c(=O)[nH]1 | -9.89
70 | COc1ccccc1C1(CNc2cn[nH]c(=O)c2Cl)CC1 | -12.7
71 | COc1ccc(C)cc1C1(CNc2cncc(Cl)n2)CCOCC1 | -8.23
72 | COc1ccc(F)cc1Cn1nc(C(N)=O)ccc1=O | 6.09
73 | Cc1nc(C)n(CC2CCCN(c3ccnc(-c4ccccc4)n3)C2)n1 (configuration not stated) | -10.2
74 | CCn1nnnc1-c1cccc(NC(=O)COC2CCCC2)c1 | 6.8
75 | CCn1nnnc1-c1cccc(NC(=O)CCc2cnn(C)c2)c1 | -2.12
76 | NS(=O)(=O)CCNC(=O)CCc1cc(Br)cs1 | 1.86
77 | Cc1cc(C)nc(NC2CCc3nc(C)nn3C2)n1 (configuration not stated) | -5.94
78 | Cc1cc(N(C)C)nc(NC2CCc3nc(C)nn3C2)n1 (configuration not stated) | 6.17

Row | Compound | cytotoxicity at 70.5 h [%]
79 | Cc1ccc(C)c(C(O)Cn2cc(Cl)c(=O)[nH]c2=O)c1 (configuration not stated) | 13.1
80 | NC(=O)Nc1cccc(F)c1C(=O)NC1CCCC1 | -3.68
81 | CC(C)(C)c1ccc2c(c1)CCN2C(=O)c1[nH]c(=O)[nH]c(=O)c1N | -6.44
82 | CCOCc1ccc(NCc2cnc(N3CCN(C)CC3)nc2)cc1 | -3.75
83 | CCOc1ccc(NCc2cnc(N3CCN(C)CC3)nc2)cn1 | -1.43
84 | Cn1cc(S(=O)(=O)N2CCCC(Cn3cncn3)C2)cn1 (configuration not stated) | -2.09
85 | Cc1ccc(F)cc1C(=O)NCc1ccc(C(=O)O)o1 | 7.02
86 | CCOc1ccc(NC(=O)c2cccc(OC)c2OC)cc1 | -1.48
87 | CC(OCC1CC1)C(=O)NCc1cccc(CN2CCN(C)CC2)c1 (configuration not stated) | 5.66
88 | O=C(COC1CCCCC1)Nc1ccn(CCc2ccncc2)n1 | -7.83
89 | CCN(Cc1ccc(CN(C)C)cc1)C(=O)c1ccncc1O | -11.2
90 | CC1CCCCN1C(=O)Cn1cnc(C#N)n1 (configuration not stated) | -6.77
91 | COc1cc(F)ccc1NC(=O)NCCNC(=O)OC(C)(C)C | -14
92 | O=C(NCCCn1cccn1)C1COCC(=O)N1Cc1ccccc1 (configuration not stated) | -0.531
93 | CN(Cc1ccc2c(c1)OCO2)Cc1cscn1 | 10.1
94 | COCc1c(Br)cccc1NC(=O)CC(F)(F)F | -13.2
95 | CN(Cc1cscn1)Cc1cc2c(cc1Br)OCO2 | -4.04
96 | Cc1cc(C)n(-c2cccc(NC(=O)N3CCC[C@@H]3CO)c2)n1 | -16
97 | Cc1ccc(C)c(CC(=O)NC2CCCS(=O)(=O)C2)c1 (configuration not stated) | 6.95
98 | Cc1ccc(C2CSCCN2CCS(C)(=O)=O)cc1 (configuration not stated) | -12.2
99 | Cc1noc(C)c1C(C)NC(=O)N1CCC(NC(=O)c2ccsc2)CC1 (configuration not stated) | -6.79
100 | C[C@@H]1CN(Cc2ccccc2F)CC(C(N)=O)O1 (some centres not stated) | -14.1
101 | Cc1cnc(CCNc2cccc(CC3CCCNC3)n2)s1 (configuration not stated) | 0.312
102 | CCN(CC)C(=O)CN1CCc2nc(C3CCNCC3)nc(NC)c2C1 | -4.13
